Data set [1] can be described thus: Total antioxidant capacity (TAC), molybdate reduction. The note with it: for TAC: total antioxidant capacity: compound 1 mM in DMSO, 695 nm. On the procedure:
An amount of 2 mL of freshly prepared 0.6 M solution of sulfuric acid, a solution of ammonium molybdate (4 mM), and a buffer solution of sodium phosphate (28 mM) were placed in small glass test tubes and thoroughly mixed with the compound solution (200 μL in DMSO with a concentration of 1 mM). An amount of 2 mL of molybdate reagent was mixed with 200 μL of distilled water to make a blank test. The cylinders were warmed to 85 °C for 1.5 h before cooling to ambient temperature. At 695 nm, the produced blue color was assessed with a UV spectrophotometer, with the blank reading having to serve as the auto-zero point. The TAC results were calculated using the Trolox standard calibration curve.

Data set [2] is described as follows: DPPH scavenging activity (DPPH-SA). The note with it: for DPPH-SA: 2,2-diphenyl-1-picrylhydrazyl scavenging activity: compound 1 mM, 517 nm. The protocol:
The ability of the compounds to scavenge free radicals was tested against DPPH-stable free radicals. The degree of reduction in the DPPH violet color is directly proportional to the scavenging efficacy of the compounds. According to the method of Aroua et al., 1 mL of the DMSO solutions of the tested compounds (1 mM final concentration) was thoroughly mixed in test tubes with the DPPH solution prepared at the concentration of 300 µM in methanol. After 30 min at room temperature, the reduction in DPPH-violet color was measured at 517 nm. The DPPH-SA of the compounds was calculated using the DPPH-Trolox calibration curve.

Data set [3] is described as follows: Ferric reducing antioxidant power (FRAP) assay. The note with it: for FRAP: ferric reducing antioxidant power: compound 1 mM, 593 nm. On the procedure:
The FRAP reagent is a 1:1:10 mixture of TPTZ (2,4,6-Tris(2-pyridyl)-S-triazine, 10 mM prepared in 40 mM HCl), FeCl3.6H2O (20 mM), and acetate buffer (300 mM, pH 3.6). Accurately, 0.1 mL of the samples (final concentration 1 mM in DMSO) was thoroughly mixed with 2 mL of the FRAP reagent and incubated at room temperature for 30 min. At 593 nm, the absorbance was measured. The compounds FRAP activity was calculated using the FRAP-trolox calibration curve in trolox equivalent.

Data set [4] in a line: Iron chelating activity assay (MCA). The note with it: for MCA: metal chelating activity: compound 1 mM, 562 nm. On the procedure: Using the method of Zengin et al. with modification, the ability of compounds to chelate iron compared to the EDTA was estimated. To inchoate the color, a compound solution in DMSO ([…] a final concentration of 1 mM) plus ferrous chloride (25 μL, 2 mM, FeCl2) was added to 100 μL of ferrozine. At 562 nm, the absorbance of the mixture was measured in comparison to a blank (prepared similarly to a test without ferrozine). The chelating activity of the extract was calculated in equivalents to the EDTA standard calibration curve.

For a further data set, the target named is α-amylase (Aspergillus oryzae, UniProt P0C1B3). Nature of the data set: biochemical. The note with it: triplicate values; read-out: α-Amylase Inhibition IC50 ± SEM. The protocol:
The α-amylase inhibition activity was measured using the previously reported methodologies. An amount of 500 μL of test sample ([…]) and 500 μL of […] α-amylase (source: Aspergillus oryzae) solution (0.5 mg/mL) in […] phosphate buffer (pH 6.9) were incubated for 10 min at 25 °C. Following pre-incubation, 500 μL of 1% starch solution in 0.02 M sodium phosphate buffer (pH 6.9) was added and incubated for 10 min at 25 °C. An amount of 1 mL of dinitro salicylic acid color reagent was used to stop the reaction. The tubes were then placed in boiling water for 5 min before being cooled to room temperature. After diluting the solutions with 10 mL of distilled water, the absorbance at 540 nm was measured. […] The percentage of enzyme inhibition was calculated using the following equation:(1) % of Enzyme Inhibition=(Absorbance of control – Absorbance of compound)×100 /Absorbance of control

Another data set has as its target T1, α-glucosidase (Saccharomyces cerevisiae, UniProt P53341).
T1 construct: purchased Sigma-Aldrich
Nature of the data set: biochemical. The note with it: triplicate values; read-out: α-Glucosidase Inhibition IC50 ± SEM. On the procedure:
The inhibition of α-glucosidase activity was measured using a modified version of a previously published method. In 100 mL of phosphate buffer (pH 6.8) containing 200 mg of bovine serum albumin, one milligram of α-glucosidase (Saccharomyces cerevisiae, Sigma-Aldrich, St. Louis, MO, USA) was dissolved (Merck, Darmstadt, Germany). The reaction mixture was made up of 10 μL of sample at various concentrations ([…]), 490 μL of phosphate buffer pH 6.8, and 250 μL of 5 mM p-nitrophenyl-D-glucopyranoside (Sigma-Aldrich, Buchs, Switzerland). After a 5 min preincubation at 37 °C, 250 μL of α-glucosidase (0.15 unit/mL) was added and incubated at 37 °C for 15 min. The reaction was stopped by adding 2000 μL Na2CO3 200 mM. α-glucosidase activity was measured using a spectrophotometer UV-Vis (Shimadzu 265, Kyoto, Japan) at 400 nm by measuring the amount of p-nitrophenol released from p-NPG. […] Equation (1) was used to calculate the percentage of inhibition.

We go through eight molecules from paper PMC9963656, “Synthesis, Molecular Docking, and Bioactivity Study of Novel Hybrid Benzimidazole Urea Derivatives: A Promising α-Amylase and α-Glucosidase Inhibitor Candidate with Antioxidant Activity” (Pharmaceutics, 2023).

T1 sequence (P53341 whole entry): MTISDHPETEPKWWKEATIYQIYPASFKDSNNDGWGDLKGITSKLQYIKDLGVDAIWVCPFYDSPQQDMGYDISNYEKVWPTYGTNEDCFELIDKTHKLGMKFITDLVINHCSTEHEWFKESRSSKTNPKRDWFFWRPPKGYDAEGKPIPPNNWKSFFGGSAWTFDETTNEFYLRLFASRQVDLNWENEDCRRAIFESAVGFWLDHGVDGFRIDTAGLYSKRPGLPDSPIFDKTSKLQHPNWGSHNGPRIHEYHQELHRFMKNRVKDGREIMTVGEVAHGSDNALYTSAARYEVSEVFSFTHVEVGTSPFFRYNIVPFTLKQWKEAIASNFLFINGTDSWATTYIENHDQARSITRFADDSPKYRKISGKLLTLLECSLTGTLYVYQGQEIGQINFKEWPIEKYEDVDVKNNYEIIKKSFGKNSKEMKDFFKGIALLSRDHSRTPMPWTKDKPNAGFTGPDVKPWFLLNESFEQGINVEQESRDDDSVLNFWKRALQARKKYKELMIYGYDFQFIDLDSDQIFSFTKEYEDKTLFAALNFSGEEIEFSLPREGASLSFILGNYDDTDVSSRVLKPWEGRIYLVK

One may read the IC50 as the midpoint of a concentration-inhibition curve. In general, melting point refers to the temperature of the solid-liquid transition. In turn, `O=C(Nc1ccccc1)Nc1ccccc1-c1nc2ccccc2[nH]1` [3a, 1-(2-(1H-benzo[d]imidazol-2-yl)phenyl)-3-phenylurea] showed a melting point of 129 to 131 °C. Moreover, in data set [1], the “TAC: total antioxidant capacity” value is listed as 1.33 ± 0.46 trolox equivalent per 1 mM of the compounds. Moreover, the “DPPH-SA: 2,2-diphenyl-1-picrylhydrazyl scavenging activity” value in data set [2] was 1.17 ± 0.07 trolox equivalent per 1 mM of the compounds. Moreover, the “FRAP: ferric reducing antioxidant power” value in data set [3] was 6.53 ± 0.03 trolox equivalent per 1 mM of the compounds. Further, the “MCA: metal chelating activity” value in data set [4] is reported as 1.62 ± 0.10 EDTA equivalent per 1 mM of the compounds. In addition, the IC50 on α-amylase was 40.7 ± 0.06 µM. The IC50 on α-glucosidase was 42.97 ± 0.19 µM.
`O=C(Nc1ccccc1-c1nc2ccccc2[nH]1)Nc1cccc2ccccc12` [3b, 1-(2-(1H-benzo[d]imidazol-2-yl)phenyl)-3-(naphthalen-1-yl)urea] had a melting point of 203 to 205 °C. Also, in data set [1], the “total antioxidant capacity (TAC), molybdenum (VI) reducing activity” value is on record as 5.16 ± 0.69 mM trolox equivalents and the “TAC: total antioxidant capacity” value is on record as 5.16 ± 0.69 trolox equivalent per 1 mM of the compounds. The “DPPH-SA: 2,2-diphenyl-1-picrylhydrazyl scavenging activity” value in data set [2] is recorded as 0.96 ± 0.06 trolox equivalent per 1 mM of the compounds. The “FRAP: ferric reducing antioxidant power” value in data set [3] was 9.25 ± 0.20 trolox equivalent per 1 mM of the compounds. The “MCA: metal chelating activity” value in data set [4] is listed as 1.55 ± 0.07 EDTA equivalent per 1 mM of the compounds. In addition, the IC50 on α-amylase was 41.7 ± 0.06 µM. Also, the IC50 on α-glucosidase came out at 45.97 ± 0.19 µM.
`COc1ccc(NC(=O)Nc2ccccc2-c2nc3ccccc3[nH]2)cc1` [3c, 1-(2-(1H-benzo[d]imidazol-2-yl)phenyl)-3-(4-methoxyphenyl)urea] came in with a melting point of 197 to 199 °C. In data set [1], the “total antioxidant capacity (TAC), molybdenum (VI) reducing activity” value is 4.43 ± 0.53 mM trolox equivalents and the “TAC: total antioxidant capacity” value is 4.43 ± 0.53 trolox equivalent per 1 mM of the compounds. Also, the “DPPH-SA: 2,2-diphenyl-1-picrylhydrazyl scavenging activity” value in data set [2] is reported as 1.61 ± 0.02 trolox equivalent per 1 mM of the compounds. In addition, in data set [3], the “ferric reducing antioxidant power (FRAP)” value is 8.65 ± 0.29 mM trolox equivalents and the “FRAP: ferric reducing antioxidant power” value was 8.65 ± 0.29 trolox equivalent per 1 mM of the compounds. For the same molecule, the “MCA: metal chelating activity” value in data set [4] is 1.55 ± 0.22 EDTA equivalent per 1 mM of the compounds. Further, the half-inhibitory concentration (IC50) on α-amylase is 18.7 ± 0.23 µM. Also, the IC50 on α-glucosidase is 17.47 ± 0.03 µM.
The molecule `O=C(Nc1ccccc1-c1nc2ccccc2[nH]1)NC1CCCCC1` [3d, 1-(2-(1H-benzo[d]imidazol-2-yl)phenyl)-3-cyclohexylurea] yielded a melting point of 330 to 332 °C. The “TAC: total antioxidant capacity” value in data set [1] is given as 2.47 ± 0.42 trolox equivalent per 1 mM of the compounds. For the same molecule, in data set [2], the DPPH-SA is reported as 2.89 ± 1.07 mM trolox equivalents and the “DPPH-SA: 2,2-diphenyl-1-picrylhydrazyl scavenging activity” value is on record as 2.89 ± 1.07 trolox equivalent per 1 mM of the compounds. In addition, in data set [3], the “FRAP: ferric reducing antioxidant power” value is reported as 5.67 ± 0.69 trolox equivalent per 1 mM of the compounds. Further, the “MCA: metal chelating activity” value in data set [4] is reported as 1.46 ± 0.10 EDTA equivalent per 1 mM of the compounds. Also, the IC50 at α-amylase came out at 25.65 ± 0.03 µM. Also, the IC50 at α-glucosidase came to 27.47 ± 0.13 µM.
The molecule `CC(C)NC(=O)Nc1ccccc1-c1nc2ccccc2[nH]1` [3e, 1-(2-(1H-benzo[d]imidazol-2-yl)phenyl)-3-isopropylurea] yielded a melting point of 196 to 198 °C. Further, the “TAC: total antioxidant capacity” value in data set [1] is reported as 2.52 ± 0.80 trolox equivalent per 1 mM of the compounds. Further, the “DPPH-SA: 2,2-diphenyl-1-picrylhydrazyl scavenging activity” value in data set [2] is on record as 1.70 ± 0.01 trolox equivalent per 1 mM of the compounds. In data set [3], the “FRAP: ferric reducing antioxidant power” value is recorded as 2.75 ± 0.15 trolox equivalent per 1 mM of the compounds. In addition, the “MCA: metal chelating activity” value in data set [4] is 1.47 ± 0.09 EDTA equivalent per 1 mM of the compounds. Also, at α-amylase, the IC50 worked out at 20.7 ± 0.06 µM. Also, the IC50 on α-glucosidase turned out to be 21.97 ± 0.19 µM.
In turn, `CCCCNC(=O)Nc1ccccc1-c1nc2ccccc2[nH]1` [3f, 1-(2-(1H-benzo[d]imidazol-2-yl)phenyl)-3-butylurea] showed a melting point of 196 to 198 °C. In addition, in data set [1], the “total antioxidant capacity (TAC), molybdenum (VI) reducing activity” value was found to be 8.50 ± 0.87 mM trolox equivalents and the “TAC: total antioxidant capacity” value is 8.50 ± 0.87 trolox equivalent per 1 mM of the compounds. Also, in data set [2], the “DPPH-SA: 2,2-diphenyl-1-picrylhydrazyl scavenging activity” value was 1.55 ± 0.03 trolox equivalent per 1 mM of the compounds. The “FRAP: ferric reducing antioxidant power” value in data set [3] is given as 5.99 ± 0.02 trolox equivalent per 1 mM of the compounds. Besides, in data set [4], the “MCA: metal chelating activity” value was 1.40 ± 0.07 EDTA equivalent per 1 mM of the compounds. Further, on α-amylase, the IC50 came to 28.33 ± 0.02 µM. Further, the IC50 on α-glucosidase was found to be 29.01 ± 0.12 µM.
In turn, `O=C(Nc1ccc(NC(=O)Nc2ccccc2-c2nc3ccccc3[nH]2)cc1)Nc1ccccc1-c1nc2ccccc2[nH]1` [3g, 1,1’-(1,4-phenylene)bis(3-(2-(1H-benzo[d]imidazol-2-yl)phenyl)urea)] had a melting point of 190 to 192 °C. In addition, in data set [1], the “total antioxidant capacity (TAC), molybdenum (VI) reducing activity” value amounted to 10.06 ± 1.51 mM trolox equivalents and the “TAC: total antioxidant capacity” value was 10.06 ± 1.51 trolox equivalent per 1 mM of the compounds. Besides, in data set [2], the DPPH-SA was found to be 3.86 ± 0.04 mM trolox equivalents and the “DPPH-SA: 2,2-diphenyl-1-picrylhydrazyl scavenging activity” value is 3.86 ± 0.04 trolox equivalent per 1 mM of the compounds. In data set [3], the “ferric reducing antioxidant power (FRAP)” value turned out to be 16.12 ± 0.29 mM trolox equivalents and the “FRAP: ferric reducing antioxidant power” value was 16.12 ± 0.29 trolox equivalent per 1 mM of the compounds. For the same molecule, the “MCA: metal chelating activity” value in data set [4] is given as 1.36 ± 0.09 EDTA equivalent per 1 mM of the compounds. For the same molecule, the IC50 at α-amylase is 22.33 ± 0.12 µM. Moreover, the IC50 on α-glucosidase was found to be 23.01 ± 0.12 µM.
Molecule `O=C(NCC1CCC(CNC(=O)Nc2ccccc2-c2nc3ccccc3[nH]2)CC1)Nc1ccccc1-c1nc2ccccc2[nH]1` (centres unmarked) [3h, 1,1′-(cyclohexane-1,4-diylbis(methylene))bis(3-(2-(1H-benzo[d]imidazol-2-yl)phenyl)urea)] had a melting point of 190 to 192 °C. For the same molecule, the “TAC: total antioxidant capacity” value in data set [1] is given as 2.25 ± 0.65 trolox equivalent per 1 mM of the compounds. Also, in data set [2], the “DPPH-SA: 2,2-diphenyl-1-picrylhydrazyl scavenging activity” value was 1.09 ± 0.03 trolox equivalent per 1 mM of the compounds. In addition, the “FRAP: ferric reducing antioxidant power” value in data set [3] was 6.79 ± 0.50 trolox equivalent per 1 mM of the compounds. Further, in data set [4], the “metal chelating activity (MCA)” value amounted to 2.95 ± 0.21 mM EDTA equivalents and the “MCA: metal chelating activity” value is recorded as 2.95 ± 0.21 EDTA equivalent per 1 mM of the compounds. For the same molecule, the IC50 on α-amylase was found to be 43.04 ± 0.02 µM. Moreover, at α-glucosidase, the IC50 is 44.99 ± 0.09 µM.
